Patent publication US20240390298A1, “CYCLOHEXYL BETA-HYDROXY ALKYL AMINES AND MEDICAL USES THEREOF” (ATROGI AB, priority 2021, published 2024)
Counter-ions that a name gives are not always drawn.

Assays:
L6-myotubes [1] = assay: Glucose uptake in differentiated L6-myotubes (3H-2-deoxyglucose), compared to isoproterenol; format: cell-based; details: agonist 1×10^−5 M, 50 nM 3H-2-deoxyglucose; for Emax at 10 µM: read-out: Biological example 1: glucose uptake, activity compared to that of isoproterenol
Procedure: (§1) L6-myoblasts were grown in Dulbecco's Modified Eagle's Medium (DMEM) containing 1 g/L glucose supplemented with 10% fetal bovine serum, 2 mM L-Glutamine, 50 U/mL penicillin, 50 μg/mL streptomycin and 10 mM HEPES. Cells were plated at 1×10^5 cells per mL in 24-well plates. After reaching 90% confluence the cells were grown in medium containing 2% FBS for 7 days where upon cells differentiated into myotubes.
Differentiated L6-myotubes were serum-starved overnight in medium containing 0.5% fatty-acid free BSA and stimulated with an agonist, with a final concentration of 1×10^−5 M. After 1 h 40 min the cells were washed with warm glucose free medium or PBS twice and another portion of agonist was added to the glucose free medium. After 20 min the cells were exposed to 50 nM ^3H-2-deoxyglucose for 10 min before washed with ice cold glucose free medium or PBS three times and lysed with 0.2 M NaOH, 400 μL/well, for 1 h at 60° C. The cell lysate was mixed with 4 mL scintillation buffer (Emulsifier Safe, Perkin Elmer) and the radioactivity was detected in a β-counter (Tri-Carb 4810TR, Perkin Elmer). The activity for each compound is compared to that of isoproterenol.

L6-myotubes [2] = assay: Measurement of intracellular cAMP levels in differentiated L6 cells (alpha screen cAMP kit), compared to isoproterenol; format: cell-based; details: agonist 1×10^−5 M, 15 min; for Emax at 10 µM: Rattus norvegicus, L6, 0.25 h, read-out: Biological example 2: intracellular cAMP levels, activity compared to that of isoproterenol
Procedure: as §1
Differentiated cells were serum-starved overnight and stimulated with an agonist, final concentration 1×10^−5 M, for 15 min in stimulation buffer (HBSS supplemented with 1% BSA, 5 mM HEPES and 1 mM IBMX, pH 7.4). The medium was aspirated and 100 μL of 95% EtOH was added to each well of the 24-well plate and cells were kept at −20° C. overnight. The EtOH was allowed to evaporate and 500 μL of lysis buffer (1% BSA, 5 mM HEPES and 0.3% Tween-20, pH 7.4) was added to each well. The plate was kept at −80° C. for 30 min and then at −20° C. until the day of detection when the samples were thawed. Intracellular cAMP levels were detected using an alpha screen cAMP kit (6760635D from Perkin Elmer). The activity for each compound is compared to that of isoproterenol.

Row | Structure (SMILES) | Biological example 1: glucose uptake, activity compared to that of isoproterenol (L6-myotubes [1]) | Emax at 10 µM (L6-myotubes [2]) [%] | Biological example 2: intracellular cAMP levels, activity compared to that of isoproterenol (L6-myotubes [2]) | Emax at 10 µM (L6-myotubes [1]) [%]
1 | CO[C@@H]1CCC[C@H](C(C)(C)NC[C@H](O)c2cccc(F)c2)C1 (single isomer, unassigned) [Example 119] | + + + | < 25 | – | –
2 | CO[C@H]1CCC[C@@H](C(C)(C)NC[C@H](O)c2cccc(F)c2)C1 (single isomer, unassigned) [Example 120] | + + + | < 25 | – | –
3 | CO[C@@H]1CCC[C@H](C(C)(C)NC[C@H](O)c2cncc(F)c2)C1 (single isomer, unassigned) [Example 121] | + + | < 25 | – | –
4 | CO[C@H]1CCC[C@@H](C(C)(C)NC[C@H](O)c2cncc(F)c2)C1 (single isomer, unassigned) [Example 122] | + + + | – | + + | –
5 | CO[C@H]1CC[C@@H](CNC[C@H](O)c2cccc(F)c2)CC1 [Example 1, (R)-1-(3-Fluorophenyl)-2-((((1s,4S)-4-methoxycyclohexyl)-methyl)amino)ethan-1-ol] | + + | < 25 | – | –
6 | CO[C@H]1CC[C@@H](CNC[C@H](O)c2cncc(F)c2)CC1 [Example 2, (R)-1-(5-Fluoropyridin-3-yl)-2-((((1s,4S)-4-methoxycyclohexyl)-methyl)amino)ethan-1-ol] | + + | < 25 | – | –
7 | CO[C@H]1CC[C@H](CNC[C@H](O)c2cccc(F)c2)CC1 [Example 3, (R)-1-(3-Fluorophenyl)-2-((((1r,4R)-4-methoxycyclohexyl)methyl)amino)-ethan-1-ol] | + + | < 25 | – | –
8 | CO[C@H]1CC[C@H](CNC[C@H](O)c2cncc(F)c2)CC1 [Example 4, (R)-1-(5-Fluoropyridin-3-yl)-2-((((1r,4R)-4-methoxycyclohexyl)-methyl)amino)ethan-1-ol] | + + | < 25 | – | –
9 | CO[C@H]1CC[C@@H](C(C)(C)NC[C@H](O)c2cccc(F)c2)CC1 [Example 5, (R)-1-(3-Fluorophenyl)-2-((2-((1s,4S)-4-methoxycyclohexyl)propan-2-yl)-amino)ethan-1-ol] | – | < 25 | – | < 25
10 | CO[C@H]1CC[C@@H](C(C)(C)NC[C@H](O)c2cncc(F)c2)CC1 [Example 6, (R)-1-(5-fluoropyridin-3-yl)-2-((2-((1s,4S)-4-methoxycyclohexyl)propan-2-yl)amino)ethan-1-ol] | – | < 25 | – | < 25
11 | CO[C@H]1CC[C@H](C(C)(C)NC[C@H](O)c2cccc(F)c2)CC1 [Example 7] | + + + | < 25 | – | –
12 | CO[C@H]1CC[C@H](C(C)(C)NC[C@H](O)c2cncc(F)c2)CC1 [Example 8, (R)-1-(5-Fluoropyridin-3-yl)-2-((2-((1r,4R)-4-methoxycyclohexyl)propan-2-yl)amino)ethan-1-ol] | + + + | < 25 | – | –
13 | CO[C@H]1CC[C@@H](CCNC[C@H](O)c2cccc(F)c2)CC1 [Example 9, (R)-1-(3-Fluorophenyl)-2-((2-((1s,4S)-4-methoxycyclohexyl)ethyl)amino)-ethan-1-ol] | + + | < 25 | – | –
14 | CO[C@H]1CC[C@@H](CCNC[C@H](O)c2cncc(F)c2)CC1 [Example 10, (R)-1-(5-Fluoropyridin-3-yl)-2-((2-((1s,4S)-4-methoxycyclohexyl)ethyl)-amino)ethan-1-ol] | + + + | < 25 | – | –
15 | CO[C@H]1CC[C@H](CCNC[C@H](O)c2cccc(F)c2)CC1 [Example 11, (R)-1-(3-Fluorophenyl)-2-((2-((1r,4R)-4-methoxycyclohexyl)ethyl)amino)-ethan-1-ol] | – | < 25 | – | 25 to 50
16 | CO[C@H]1CC[C@H](CCNC[C@H](O)c2cncc(F)c2)CC1 [Example 12, (R)-1-(5-Fluoropyridin-3-yl)-2-((2-((1r,4R)-4-methoxycyclohexyl)ethyl)-amino)ethan-1-ol] | + + | < 25 | – | –
17 | CO[C@H]1CC[C@@H](CC(C)(C)NC[C@H](O)c2cccc(F)c2)CC1 [Example 13, (R)-1-(3-Fluorophenyl)-2-((1-((1s,4S)-4-methoxycyclohexyl)-2-methyl-propan-2-yl)amino)ethan-1-ol] | + + + | < 25 | – | –
18 | CO[C@H]1CC[C@@H](CC(C)(C)NC[C@H](O)c2cncc(F)c2)CC1 [Example 14, (R)-1-(5-Fluoropyridin-3-yl)-2-((1-((1s,4S)-4-methoxycyclohexyl)-2-methylpropan-2-yl)amino)ethan-1-ol] | + + + | < 25 | – | –
19 | CO[C@H]1CC[C@H](CC(C)(C)NC[C@H](O)c2cccc(F)c2)CC1 [Example 15, (R)-1-(3-Fluorophenyl)-2-((1-((1r,4R)-4-methoxycyclohexyl)-2-methyl-propan-2-yl)amino)ethan-1-ol] | + + + | < 25 | – | –
20 | CO[C@H]1CC[C@H](CC(C)(C)NC[C@H](O)c2cncc(F)c2)CC1 [Example 16, (R)-1-(5-Fluoropyridin-3-yl)-2-((1-((1r,4R)-4-methoxycyclohexyl)-2-methyl-propan-2-yl)amino)ethan-1-ol] | + + | < 25 | – | –
21 | COC1CCC(CCCNC[C@H](O)c2cccc(F)c2)CC1 (stereo partly drawn) [Example 17, (R)-1-(3-Fluorophenyl)-2-((3-((1r,4S)-4-methoxycyclohexyl)propyl)-amino)ethan-1-ol] | – | < 25 | – | 25 to 50
22 | COC1CCC(CCCNC[C@H](O)c2cncc(F)c2)CC1 (stereo partly drawn) [Example 18, (R)-1-(5-Fluoropyridin-3-yl)-2-((3-((1r,4S)-4-methoxycyclohexyl)propyl)-amino)ethan-1-ol] | – | < 25 | – | < 25
23 | CO[C@H]1CC[C@@H](CCCNC[C@H](O)c2cccc(F)c2)CC1 [Example 19, (R)-1-(3-Fluorophenyl)-2-((3-((1s,4R)-4-methoxycyclohexyl)propyl)amino)-ethan-1-ol] | + + + | – | + + | –
24 | CO[C@H]1CC[C@@H](CCCNC[C@H](O)c2cncc(F)c2)CC1 [Example 20, (R)-1-(5-Fluoropyridin-3-yl)-2-((3-((1s,4R)-4-methoxycyclohexyl)propyl)-amino)ethan-1-ol] | + + + | < 25 | – | –
25 | CO[C@H]1CC[C@H](CCC(C)(C)NC[C@H](O)c2cccc(F)c2)CC1.Cl [Example 21, (R)-1-(3-Fluorophenyl)-2-((4-((1r,4S)-4-methoxycyclohexyl)-2-methyl-butan-2-yl)amino)ethan-1-ol hydrochloride] | + + | < 25 | – | –
26 | COC1CCC(CCC(C)(C)NC[C@H](O)c2cncc(F)c2)CC1 (stereo partly drawn) [Example 22, (R)-1-(5-Fluoropyridin-3-yl)-2-((4-((1r,4S)-4-methoxycyclohexyl)-2-methylbutan-2-yl)amino)ethan-1-ol dihydrochloride] | – | < 25 | – | 25 to 50
27 | CO[C@H]1CC[C@@H](CCC(C)(C)NC[C@H](O)c2cccc(F)c2)CC1.Cl [Example 23, (R)-1-(3-Fluorophenyl)-2-((4-((1s,4R)-4-methoxycyclohexyl)-2-methylbutan-2-yl)amino)ethan-1-ol hydrochloride] | + + + | 25 to 50 | – | –
28 | COC(=O)[C@H]1CC[C@@H](C(C)(C)NC[C@H](O)c2cccc(F)c2)CC1 [Example 95, Methyl (1S,4s)-4-(2-(((R)-2-(3-Fluorophenyl)-2-hydroxyethyl)amino)-propan-2-yl)cyclohexane-1-carboxylate] | + + + | – | – | –
29 | COC(=O)[C@H]1CC[C@@H](C(C)(C)NC[C@H](O)c2cncc(F)c2)CC1 [Example 96, Methyl (1S,4s)-4-(2-(((R)-2-(5-Fluoropyridin-3-yl)-2-hydroxyethyl)amino)-propan-2-yl)cyclohexane-1-carboxylate] | + + | – | – | –
